The source of these data is ChEMBL document CHEMBL1141299, “Hologram QSAR model for the prediction of human oral bioavailability” (Bioorg Med Chem, 2007).

The first data set is described as follows: Oral bioavailability in human. As to conditions: in vivo.
As for `CN(C)CCC[C@]1(c2ccc(F)cc2)OCc2cc(C#N)ccc21` [(R)-CITALOPRAM], the bioavailability came to 80%.

As for `c1ccc(C2(N3CCCCC3)CCCCC2)cc1` [PHENCYCLIDINE], the bioavailability stood at 72%.

In turn, `CC(C)n1c(/C=C/[C@H](O)C[C@H](O)CC(=O)O)c(-c2ccc(F)cc2)c2ccccc21` [FLUVASTATIN] returned a bioavailability of 24%.

As for `CN1CCN(C(=O)O[C@@H]2c3nccnc3C(=O)N2c2ccc(Cl)cn2)CC1`, the bioavailability amounted to 80%.

In turn, `C[C@H](NC(C)(C)C)C(=O)c1cccc(Cl)c1` registered a bioavailability of 70%.

On to `CC(C)N(CC[C@](C(N)=O)(c1ccccc1)c1ccccn1)C(C)C` [(S)-DISOPYRAMIDE], for which the bioavailability was determined as 83%.

Molecule `NCC1(CC(=O)O)CCCCC1` [GABAPENTIN] registered a bioavailability of 60%.

For `CCOC(=O)C1=C[C@@H](OC(CC)CC)[C@H](NC(C)=O)[C@@H](N)C1` [OSELTAMIVIR], the bioavailability came out at 75%.

The molecule `C[C@@H]1O[C@@H](O[C@@H]2C=C3CC[C@@H]4[C@H](CC[C@]5(C)[C@@H](c6ccc(=O)oc6)CC[C@]45O)[C@@]3(C)CC2)[C@H](O)[C@H](O)[C@H]1O` [PROSCILLARIDIN] returned a bioavailability of 7%.

Regarding `CN1C[C@H](CNC(=O)OCc2ccccc2)C[C@@H]2c3cccc4c3c(cn4C)C[C@H]21` [METERGOLINE], the bioavailability stood at 23%.

For `C[C@]12C=CC(=O)N[C@@H]1CC[C@@H]1[C@@H]2CC[C@]2(C)[C@@H](C(=O)Nc3cc(C(F)(F)F)ccc3C(F)(F)F)CC[C@@H]12` [DUTASTERIDE], the bioavailability is 60%.

For `Oc1ccc2c3c1O[C@H]1[C@@H](O)CC[C@@]4(O)[C@@H](C2)N(CC2CCC2)CC[C@]314` [NALBUPHINE], the bioavailability came to 11%.

On to `NS(=O)(=O)c1cc([C@@]2(O)NC(=O)c3ccccc32)ccc1Cl`, for which the bioavailability was 64%.

`COc1c(N2CCN[C@H](C)C2)c(F)cc2c(=O)c(C(=O)O)cn(C3CC3)c12` [(R)-GATIFLOXACIN] registered a bioavailability of 96%.

The molecule `C[C@@H](NC(C)(C)C)C(=O)c1cccc(Cl)c1` returned a bioavailability of 70%.

`COC(=O)C1=C(C)NC(C)=C(C(=O)OC)C1c1ccccc1[N+](=O)[O-]` [NIFEDIPINE] displayed a bioavailability of 50%.

The molecule `O=C1CN=C(c2ccccc2Cl)c2cc([N+](=O)[O-])ccc2N1` [CLONAZEPAM] displayed a bioavailability of 90%.

In turn, `CN1CCN(C2=Nc3cc(Cl)ccc3Nc3ccccc32)CC1` [CLOZAPINE] returned a bioavailability of 55%.

The same data set, now with this note: in vivo, F.
`Cc1cn([C@H]2C=C[C@@H](CO)O2)c(=O)[nH]c1=O` [STAVUDINE]: the bioavailability is 82%.

Regarding `CSc1ccc(C(=O)c2[nH]c(=O)[nH]c2C)cc1` [ENOXIMONE], the bioavailability worked out at 53%.

Molecule `CCN(CC)CCC[C@@H](C)Nc1ccnc2cc(Cl)ccc12` [(R)-CHLOROQUINE] yielded a bioavailability of 80%.

`CC(C)Cc1ccc([C@H](C)C(=O)O)cc1` [DEXIBUPROFEN] yielded a bioavailability of 80%.

`CCc1cccc2cc([C@H](O)CNC(C)(C)C)oc12` [(R)-BUFURALOL] registered a bioavailability of 46%.

`CN(C)[C@@H]1C(O)=C(C(N)=O)C(=O)[C@@]2(O)C(O)=C3C(=O)c4c(O)ccc(Cl)c4[C@@](C)(O)[C@H]3C[C@@H]12` [CHLORTETRACYCLINE]: the bioavailability came to 27.5%.

The molecule `C[C@@H]1COc2c(N3CCN(C)CC3)c(F)cc3c(=O)c(C(=O)O)cn1c23` [DEXTROFLOXACINE] registered a bioavailability of 97.5%.

`CNCCCC1c2ccccc2C=Cc2ccccc21` [PROTRIPTYLINE] showed a bioavailability of 85%.

`N#Cc1ccc(C(c2ccc(C#N)cc2)n2cncn2)cc1` [LETROZOLE] gave a bioavailability of 99.9%.

Regarding `C[C@@H](C(=O)O)c1ccc(-c2ccccc2)c(F)c1` [TARENFLURBIL], the bioavailability worked out at 92%.

`CC(C)NC[C@@H](O)COc1ccc(OCCOCC2CC2)cc1`: the bioavailability was determined as 100%.

The molecule `COC(=O)C1=C(C)NC(C)=C(C(=O)OC(C)C)[C@H]1c1cccc2nonc12` [(S)-ISRADIPINE] returned a bioavailability of 19.5%.

On to `Clc1cccc(Cl)c1N=C1NCCN1` [CLONIDINE], for which the bioavailability came out at 60%.

Take `Cc1scc2c1N(C(=O)CN1CCN(C)CC1)c1ccccc1NC2=O` [TELENZEPINE]: the bioavailability stood at 54%.

`O=C(N[C@H](CO)[C@H](O)c1ccc([N+](=O)[O-])cc1)C(Cl)Cl` [CHLORAMPHENICOL] registered a bioavailability of 69%.

Molecule `CN1CCN2c3ccccc3Cc3ccccc3[C@H]2C1` showed a bioavailability of 20%.

`O=C(NC[C@@H]1CCCCN1)c1cc(OCC(F)(F)F)ccc1OCC(F)(F)F` came in with a bioavailability of 95%.

Turning to `COc1cc(N[C@@H](C)CCCN)c2ncccc2c1`, the bioavailability amounted to 96%.

With `C[C@@H](OC1OCCN(Cc2n[nH]c(=O)[nH]2)C1c1ccc(F)cc1)c1cc(C(F)(F)F)cc(C(F)(F)F)c1` (single isomer, unassigned) [APREPITANT], the bioavailability is 62.5%.

For the molecule `O=C(c1ccc(OCCN2CCCCC2)cc1)c1c(-c2ccc(O)cc2)sc2cc(O)ccc12` [RALOXIFENE], the bioavailability worked out at 2%.

Take `CC1(C)O[C@@H]2[C@@H](CO[C@@]3(COS(N)(=O)=O)OC(C)(C)O[C@@H]23)O1` [TOPIRAMATE]: the bioavailability was 70%.

The molecule `CN(C)c1ccc(O)c2c1C[C@H]1C[C@H]3[C@H](N(C)C)C(O)=C(C(N)=O)C(=O)[C@@]3(O)C(O)=C1C2=O` [MINOCYCLINE] yielded a bioavailability of 97.5%.

Molecule `CS(=O)(=O)c1ccc2c(c1)N(CCCN1CCC(C(N)=O)CC1)c1ccccc1S2` [METOPIMAZINE] had a bioavailability of 19%.

Turning to `COc1ccc2nc([S@@+]([O-])Cc3ncc(C)c(OC)c3C)[nH]c2c1` [ESOMEPRAZOLE], the bioavailability came to 90%.

`COC(=O)C1=C(C)NC(C)=C(C(=O)OC(C)C)[C@@H]1c1cccc2nonc12` [(R)-ISRADIPINE] registered a bioavailability of 19.5%.

Take `CCOC(=O)C(CCc1ccccc1)N[C@@H](C)C(=O)N1CCC[C@H]1C(=O)O` (single isomer, unassigned): the bioavailability came out at 41%.

In the case of `CC(C)COC[C@H](CN(Cc1ccccc1)c1ccccc1)N1CCCC1`, the bioavailability came out at 60%.

Regarding `C[C@H](CN1CCN(CCOCCO)CC1)CN1c2ccccc2Sc2ccccc21`, the bioavailability worked out at 10%.

`C[C@@H](N/C(=N/c1ccncc1)NC#N)C(C)(C)C` registered a bioavailability of 57%.

Take `CC[C@@H](CO)NCCN[C@@H](CC)CO` [ETHAMBUTOL]: the bioavailability was 77%.

Consider `CN1Cc2c(N)cccc2[C@@H](c2ccccc2)C1`, for which the bioavailability turned out to be 27%.

`Cc1cccc(C)c1OC[C@@H](C)N` [(R)-MEXILETINE] gave a bioavailability of 87%.

With `CC(=O)OCC(CCn1cnc2cnc(N)nc21)COC(C)=O` [FAMCICLOVIR], the bioavailability came to 77%.

`CNC/C=C(\c1ccc(Br)cc1)c1cccnc1` [NORZIMELIDINE]: the bioavailability worked out at 66%.

In turn, `C[C@@H](CN1CCN(CCOCCO)CC1)CN1c2ccccc2Sc2ccccc21` yielded a bioavailability of 10%.

Molecule `O[C@](CCN1CCCC1)(c1ccccc1)C1CCCCC1` [(S)-PROCYCLIDINE] registered a bioavailability of 75%.

`COc1ccc(CCN(C)CCCC2(c3ccc(OC)c(OC)c3)S(=O)(=O)CCCS2(=O)=O)cc1OC` showed a bioavailability of 22%.

For the molecule `C[C@@H](C(=O)O)c1ccc(C(=O)c2cccs2)cc1` [(R)-SUPROFEN], the bioavailability came to 92%.

`COc1cc2nc(N3CCN(C(=O)C4COc5ccccc5O4)CC3)nc(N)c2cc1OC` (configuration not stated) [DOXAZOSIN] came in with a bioavailability of 65%.

As to `CC(C)NC[C@@H](O)c1ccc(NS(C)(=O)=O)cc1` [DEXSOTALOL], the bioavailability was determined as 60%.

`C#C[C@]1(O)CC[C@H]2[C@@H]3CCc4cc(O)ccc4[C@H]3CC[C@@]21C` [ETHINYL ESTRADIOL] had a bioavailability of 40%.

`CCOC(=O)C1=C(C)NC(C)=C(C(=O)OC)[C@@H]1c1cccc(Cl)c1Cl` [(S)-FELODIPINE] yielded a bioavailability of 15%.

`C=C1/C(=C\C=C2/CCC[C@]3(C)[C@@H](C(C)CCCC(C)(C)O)CC[C@@H]23)C[C@@H](O)C[C@@H]1O` (single isomer, unassigned) [CALCITRIOL] registered a bioavailability of 61%.

`COc1ccc(Cl)cc1C(=O)NCCc1ccc(S(=O)(=O)NC(=O)NC2CCCCC2)cc1` [GLYBURIDE] returned a bioavailability of 95%.

Consider `NS(=O)(=O)c1cc2c(cc1Cl)NCNS2(=O)=O` [HYDROCHLOROTHIAZIDE], for which the bioavailability turned out to be 71%.

Consider `COc1ccc(OC)c([C@H](O)CNC(=O)CN)c1` [(S)-MIDODRINE], for which the bioavailability is 93%.

In turn, `CCOC(=O)C1=C(C)NC(C)=C(C(=O)OC)[C@@H]1c1cccc([N+](=O)[O-])c1` [(S)-NITRENDIPINE] yielded a bioavailability of 16%.

`Cc1onc(-c2c(F)cccc2Cl)c1C(=O)N[C@@H]1C(=O)N2[C@@H]1SC(C)(C)[C@@H]2C(=O)O` [FLOXACILLIN]: the bioavailability stood at 49%.

In the case of `Cn1cc[nH]c1=S` [METHIMAZOLE], the bioavailability amounted to 93%.

Take `CC(=O)Nc1ccc(O)cc1` [ACETAMINOPHEN]: the bioavailability was determined as 88%.

The molecule `O=C1CN(/N=C/c2ccc([N+](=O)[O-])o2)C(=O)N1` [NITROFURANTOIN] gave a bioavailability of 87%.

`Cc1nccn1C[C@H]1CCc2c(c3ccccc3n2C)C1=O` [(R)-ONDANSETRON] came in with a bioavailability of 62%.

The molecule `CO/N=C1\CN(c2nc3c(cc2F)c(=O)c(C(=O)O)cn3C2CC2)CC1CN` (configuration not stated) [GEMIFLOXACIN] displayed a bioavailability of 71%.

Regarding `C[C@H](C(=O)O)c1ccc(-c2ccccc2)c(F)c1` [ESFLURBIPROFEN], the bioavailability turned out to be 92%.

In the case of `Cn1c(=O)c2c(ncn2C)n(C)c1=O` [CAFFEINE], the bioavailability was determined as 100%.

The molecule `CC1(C)O[C@@H]2C[C@H]3[C@@H]4C[C@H](F)C5=CC(=O)C=C[C@]5(C)[C@H]4[C@@H](O)C[C@]3(C)[C@]2(C(=O)CO)O1` [FLUNISOLIDE] came in with a bioavailability of 20%.

In turn, `COc1cc2ncnc(Nc3ccc(F)c(Cl)c3)c2cc1OCCCN1CCOCC1` [GEFITINIB] returned a bioavailability of 60%.

`CCN(CC)CC(O)CNC(=O)c1c(OC)c2ccccc2n1-c1ccccc1` (configuration not stated) [EPROXINDINE] yielded a bioavailability of 70%.

`CCOC(=O)[C@H](CCc1ccccc1)N[C@@H](C)C(=O)N1Cc2cc(OC)c(OC)cc2C[C@H]1C(=O)O` [MOEXIPRIL] had a bioavailability of 13%.
